Test results as given in patent US20210369738A1, “PRODUCTION METHOD OF TELOMERASE ACTIVATORS AND TELOMERASE ACTIVATORS OBTAINED BY THIS METHOD” (IZMIR YUKSEK TEKNOLOJI ENSTITUSU, priority 2017, published 2021).

Experiments:
[1] = as a telomerase activator; cited from earlier work
telomerase enzyme = biological target: T1, telomerase enzyme (Homo sapiens, UniProt O14746); test: Telomerase activation, TELOTAGGG PCR ELISAPLUS kit, HEKn cells; format: cell-based; settings: 24-hour incubation
T1 construct: host or cells: HEKn (human primary epidermal keratinocytes)
T1 sequence (O14746 whole entry): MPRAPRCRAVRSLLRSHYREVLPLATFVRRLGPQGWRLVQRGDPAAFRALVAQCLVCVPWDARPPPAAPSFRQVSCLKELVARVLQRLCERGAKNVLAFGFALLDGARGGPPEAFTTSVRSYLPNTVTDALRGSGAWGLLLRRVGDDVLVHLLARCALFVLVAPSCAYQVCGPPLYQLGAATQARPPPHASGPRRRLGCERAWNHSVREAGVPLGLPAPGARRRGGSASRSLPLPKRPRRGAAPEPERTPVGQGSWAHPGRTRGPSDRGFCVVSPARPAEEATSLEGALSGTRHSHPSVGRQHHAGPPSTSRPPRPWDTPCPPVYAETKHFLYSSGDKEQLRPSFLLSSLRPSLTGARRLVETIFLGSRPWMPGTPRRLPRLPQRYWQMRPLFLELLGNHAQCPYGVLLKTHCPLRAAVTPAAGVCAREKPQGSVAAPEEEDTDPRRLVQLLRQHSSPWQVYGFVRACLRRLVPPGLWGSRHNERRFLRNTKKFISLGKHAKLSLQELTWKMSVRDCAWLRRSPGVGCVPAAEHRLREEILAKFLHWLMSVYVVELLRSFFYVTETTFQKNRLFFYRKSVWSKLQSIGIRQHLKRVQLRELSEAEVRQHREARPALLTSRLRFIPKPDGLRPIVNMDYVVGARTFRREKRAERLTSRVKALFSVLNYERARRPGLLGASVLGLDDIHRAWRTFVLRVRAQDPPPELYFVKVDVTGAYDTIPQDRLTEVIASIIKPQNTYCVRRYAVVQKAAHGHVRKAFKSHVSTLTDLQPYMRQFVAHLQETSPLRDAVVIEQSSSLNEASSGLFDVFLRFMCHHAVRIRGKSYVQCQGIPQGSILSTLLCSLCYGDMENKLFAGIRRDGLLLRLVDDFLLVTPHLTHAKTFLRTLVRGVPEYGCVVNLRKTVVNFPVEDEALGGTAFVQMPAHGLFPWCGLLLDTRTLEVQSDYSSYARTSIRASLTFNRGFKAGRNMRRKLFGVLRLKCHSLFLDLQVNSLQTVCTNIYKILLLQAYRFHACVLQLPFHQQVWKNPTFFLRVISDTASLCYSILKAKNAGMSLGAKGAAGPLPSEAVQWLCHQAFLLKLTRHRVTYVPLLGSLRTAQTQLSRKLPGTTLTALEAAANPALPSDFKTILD
Experimental: Telomerase activation tests were performed on selected molecules as follows; For culturing HEKn (Human Primer Epidermal Keratinocyte, ATCC; PCS-200-010) cells, the cell medium containing the components given in Table 2 is prepared and the cells are grown in the Dermal Cell Basal medium (PCS-200-030) supplemented with components in 5% CO2 environment at 37° C.
Telomerase activation was performed using the TELOTAGGG PCR ELISAPLUS kit (Roche; 12013789001, 16× version), a highly sensitive and quantitative method, according to the manufacturer's protocol, as follows:
After application of the selected molecules to HEKn cell lines at the defined dose interval and completion of 24-hour incubation, cells are collected and counted by hemocytometer. 2×10^5 cells are transferred to clean microcentrifuge tubes and then centrifuged at 3000×g for 5 min (at 4° C.). The supernatant is removed and the cells in the pellet are suspended with 200 μl of lysis buffer (Solution 1) and incubated on ice for 30 min. After incubation the lysates are centrifuged at 16,000×g for 20 min (at 4° C.) and the cooled supernatant is transferred to clean microcentrifuge tubes.
PCR is designed for sample group and control group. 25 μl reaction mixture (Solution 2) and 5 μl internal standard solution (Solution 3) are transferred to the PCR tubes for both the positive and negative sample as well as for the sample to be investigated for activation or the prepared master mixture is taken to a 30 μl PCR tube to contain this content. For the samples to be tested, 2 μl of each PCR sample is added from the cell lysate. For the control group, 1 μl of the low or high concentration TS8 control sample (Solution 4 or 5) is transferred to a separate PCR tube. From the lysis buffer (Solution 1), 1 μl is transferred to a separate PCR tube.
For each sample, 10 μl of the denaturing agent (Solution 7) is added to the nuclease-free 96-well plate. 2.5 μl of the amplified product is transferred to the plate and incubated for 10 min at +15 and +25° C. 100 μL Hybridization Buffer T (Solution 8) is added to a portion of the samples, 100 μL Hybridization Buffer IS (Solution 9) is added to the other portion. After homogenization, 100 μl of the reaction mixture is transferred to the MP module coated with streptavidin and the MP module is carefully closed with the special coating paper. After completion of the transfer process, the MP module is shaken at 300 rpm for 2 hours at 37° C. After incubation, the hybridization solutions are removed. Each well is washed 3 times with 250 μl of 1× wash buffer (Solution 10). The prepared anti-DIG-HRP working solution (Solution 11) is added to each of the wells. The MP module is sealed with special coating paper and incubated for 30 min at 15-25° C. with shaking at 300 rpm and the solution is carefully removed from the wells. Each well is washed 5 times in 1× wash buffer (Solution 10). From room temperature TMB substrate solution (Solution 13), 100 μl is added to each well. The MP module is covered with special coating paper and incubated at 15-25° C. for 10-20 minutes at 300 rpm with shaking. The color change is terminated by adding the post-incubation termination agent (Solution 14). The samples are measured at […] in a microplate reader for 30 min. Compounds showing telomerase activation in the 1.5-fold and higher levels according to DMSO used as a negative control were considered active.

Row | SMILES | bioavailability [1] | Fold increase over negative control (DMSO) (telomerase enzyme; 30 nM) | Fold increase over negative control (DMSO) (telomerase enzyme; 100 nM) | Fold increase over negative control (DMSO) (telomerase enzyme; 300 nM) | Fold increase over negative control (DMSO) (telomerase enzyme; 1000 nM) | Fold increase over negative control (DMSO) (telomerase enzyme; 2 nM) | Fold increase over negative control (DMSO) (telomerase enzyme; 10 nM) | Fold increase over negative control (DMSO) (telomerase enzyme; 50 nM) | Fold increase over negative control (DMSO) (telomerase enzyme; 0.5 nM) | Fold increase over negative control (DMSO) (telomerase enzyme; 0.1 nM)
1 | CC(C)(O)[C@@H]1CC[C@](C)([C@H]2[C@@H](O)C[C@@]3(C)C4C[C@H](O)C5C(C)(C)[C@@H](O)CC[C@@]56C[C@@]46CC[C@]23C)O1 (some centres unmarked) [Cycloastragenol] | 5% | – | – | – | – | – | – | – | – | –
2 | CC1(C)C(=O)C[C@H](O)[C@]23C[C@]24CC[C@]2(C)[C@@H]([C@@]5(C)CC[C@@H](C(C)(C)O)O5)[C@@H](O)C[C@@]2(C)C4C[C@H](O)C13 (some centres unmarked) [Molecule 1] | – | 1.73 fold | 0.72 fold | 0.74 fold | 1.2 fold | – | – | – | – | –
3 | CC1(C)C(=O)CC[C@]23C[C@]24CC[C@]2(C)[C@@H]([C@@]5(C)CC[C@@H](C(C)(C)O)O5)[C@@H](O)C[C@@]2(CO)C4C[C@H](O)C13 (some centres unmarked) [Molecule 3] | – | 2.36 fold | 0.78 fold | 1.24 fold | 1.07 fold | – | – | – | – | –
4 | CC(C)(O)[C@@H]1CC[C@](C)([C@H]2[C@@H](O)C[C@@]3(C)C4C[C@H](O)C5C(C)(C)[C@@H](O)CC[C@@]56C[C@@]46C[C@@H](O)[C@]23C)O1 (some centres unmarked) [Molecule 4] | – | – | – | 2.13 fold | – | 2.13 fold | 2.22 fold | 2.4 fold | – | –
5 | CC(C)(O)[C@@H]1CC[C@](C)([C@H]2[C@@H](O)C[C@@]3(C)C4C[C@H](O)C5C(C)(C)[C@@H](O)CC[C@@]56C[C@@]46C[C@H](O)[C@]23C)O1 (some centres unmarked) [Molecule 6] | – | 2.37 fold | – | – | – | 10 fold | 6.38 fold | – | 9.23 fold | –
6 | CC1(C)OC(=O)CC[C@]23C[C@]24CC[C@]2(C)[C@@H]([C@@]5(C)CC[C@@H](C(C)(C)O)O5)[C@@H](O)C[C@@]2(C)C4C[C@H](O)C13 (some centres unmarked) [Molecule 10] | – | 4.6 fold | – | – | – | 9.35 fold | 9.95 fold | – | 8.43 fold | –
7 | CC(C)(O)[C@@H]1CC[C@](C)([C@H]2[C@@H](O)C[C@@]3(C)C4C[C@H](O)[C@@H](C(C)(C)O)[C@@]5(CCC(=O)O)C[C@@]45CC[C@]23C)O1 (some centres unmarked) [Molecule 11] | – | 3.17 fold | – | – | – | 1.9 fold | 1.73 fold | – | 2.08 fold | –
8 | CC1(C)C(=O)CC[C@]23C[C@]24CC[C@]2(C)[C@@H]([C@@]5(C)CC[C@@H](C(C)(C)O)O5)[C@@H](O)C[C@@]2(C)C4C[C@H](O)C13 (some centres unmarked) [Molecule 12] | – | 0.84 fold | – | – | – | 2.14 fold | 1.78 fold | – | 4.65 fold | –
9 | CC(C)(O)[C@@H]1CC[C@](C)([C@H]2[C@@H](O)C[C@@]3(C)C4C[C@H](O)C5C(C)(C)[C@@H](O)CC[C@]5(C)C4=C[C@@H](O)[C@]23C)O1 (some centres unmarked) [Molecule 14] | – | – | – | 0.53 fold | – | 2.53 fold | 1.62 fold | 1.6 fold | – | –
10 | CC(C)(O)[C@@H]1CC[C@](C)([C@H]2[C@@H](O)C[C@@]3(C)C4C[C@H](O)C5C(C)(C)[C@@H](O)CC[C@]5(C)C4=C[C@H](O)[C@]23C)O1 (some centres unmarked) [Molecule 16] | – | – | – | – | – | 2.78 fold | 0.95 fold | – | 2.31 fold | 0.98 fold
11 | CC(C)(O)[C@@H]1CC[C@](C)([C@H]2[C@@H](O)C[C@@]3(C)C4C[C@H](O)C5C(C)(C)[C@@H](O)CC[C@]5(C)C4=CC(=O)[C@]23C)O1 (some centres unmarked) [Molecule 17] | – | – | – | – | – | 1.33 fold | 1 fold | 1.57 fold | 0.42 fold | –
12 | CC(C)(O)[C@@H]1CC[C@](C)([C@H]2[C@@H](O)C[C@@]3(C)C4C[C@H](O)[C@@H](C(C)(C)O)[C@](C)(CCC(=O)O)C4=CC[C@]23C)O1 (some centres unmarked) [Molecule 19] | – | 1.93 fold | – | – | – | 1.24 fold | 11.32 fold | – | 2.65 fold | –
13 | C=C(C)[C@@H]1[C@@H](O)CC2C(=CC[C@]3(C)[C@@H]([C@@]4(C)CC[C@@H](C(C)(C)O)O4)[C@@H](O)C[C@@]23C)[C@@]1(C)CCC(=O)O (some centres unmarked) [Molecule 20] | – | 7.86 fold | – | – | – | 5.23 fold | 6.04 fold | – | 9.01 fold | –
14 | CC1(C)C(=O)CC[C@]2(C)C3=CC[C@]4(C)[C@@H]([C@@]5(C)CC[C@@H](C(C)(C)O)O5)[C@@H](O)C[C@@]4(C)C3C[C@H](O)C12 (some centres unmarked) [Molecule 21] | – | 1.18 fold | – | – | – | 1.43 fold | 1.04 fold | – | 9.25 fold | –
